From ChEMBL document CHEMBL1201862, “PubChem BioAssay data set” (2004)
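Values below derive from 48-hour exposures of cells grown in 96-well plates, with endpoints linearly interpolated between the two concentrations bracketing the appropriate inhibition level. Abbreviation: GI50, concentration required for 50% inhibition of growth.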 The source made the active and inactive calls. Cut-off read from the data, not from the text of the source: active = GI50 up to about 1.1 µM and inactive = higher.

Assays:
Assay in all cases: inhibition of tumour cell growth, NCI panel, 48 h
EKVX = tested on: EKVX
PC-3 = tested on: PC-3
SR = tested on: SR
SF-539 = tested on: SF-539
OVCAR-4 = tested on: OVCAR-4
BT-549 = tested on: BT-549
UACC-62 = tested on: UACC-62
UO-31 = tested on: UO-31
HCT-116 = tested on: HCT-116
MDA-N = tested on: MDA-N
A498 = tested on: A498
UACC-257 = tested on: UACC-257
M14 = tested on: M14
MOLT-4 = tested on: MOLT-4
RPMI-8226 = tested on: RPMI-8226
HL-60 = tested on: HL-60
TK-10 = tested on: TK-10
NCI-H522 = tested on: NCI-H522
DU-145 = tested on: DU-145
OVCAR-3 = tested on: OVCAR-3

Structure (SMILES) | GI50 (EKVX) | GI50 (PC-3) | GI50 (SR) | GI50 (SF-539) | GI50 (OVCAR-4) | GI50 (BT-549) | GI50 (UACC-62) | GI50 (UO-31) | GI50 (HCT-116) | GI50 (MDA-N) | GI50 (A498) | GI50 (UACC-257) | GI50 (M14) | GI50 (MOLT-4) | GI50 (RPMI-8226) | GI50 (HL-60) | GI50 (TK-10) | GI50 (NCI-H522) | GI50 (DU-145) | GI50 (OVCAR-3)
COc1ccc(CCN2COc3ccc4ccc(=O)oc4c3C2)cc1OC | > 100 µM (inactive) | > 100 µM (inactive) | 24.3 µM (inactive) | > 100 µM (inactive) | > 100 µM (inactive) | > 100 µM (inactive) | 50.2 µM (inactive) | > 100 µM (inactive) | 66.5 µM (inactive) | > 100 µM (inactive) | > 100 µM (inactive) | > 100 µM (inactive) | > 100 µM (inactive) | > 100 µM (inactive) | 22.4 µM (inactive) | 19.1 µM (inactive) | > 100 µM (inactive) | > 100 µM (inactive) | > 100 µM (inactive) | > 100 µM (inactive)
c1cc(-c2ccc(-c3nc4ccc(C5=NCCN5)cc4s3)s2)ccc1C1=NCCN1 | 1.28 µM (inactive) | 0.805 µM (active) | 0.231 µM (active) | 0.296 µM (active) | 0.182 µM (active) | 1.23 µM (inactive) | 1.12 µM (inactive) | 1.02 µM (active) | 0.351 µM (active) | 0.723 µM (active) | 0.719 µM (active) | 22.5 µM (inactive) | 0.912 µM (active) | 0.0968 µM (active) | 0.295 µM (active) | 0.394 µM (active) | 0.804 µM (active) | 0.114 µM (active) | 0.19 µM (active) | 0.979 µM (active)
C[C@@H]1CC[C@@]2(C)[C@H](C)/C(=C\COC(=O)/C=C/c3ccc(O)c(O)c3)CC[C@@]12C [NAVICULYL CAFFEATE] | 15 µM (inactive) | 4.71 µM (inactive) | 2.41 µM (inactive) | 4.83 µM (inactive) | 4.65 µM (inactive) | 14.6 µM (inactive) | 10.3 µM (inactive) | 8.73 µM (inactive) | 2.78 µM (inactive) | 3.42 µM (inactive) | 12.9 µM (inactive) | 11.8 µM (inactive) | 8.18 µM (inactive) | 2.26 µM (inactive) | 2.21 µM (inactive) | 5.26 µM (inactive) | 3.5 µM (inactive) | 1.28 µM (inactive) | 8.02 µM (inactive) | 8.63 µM (inactive)
